Source: patent publication US9957273B2, “5-substituted 7- [4-(2-pyridyl)phenylmethylamino] -3-isopropylpyrazolo4,3-D]pyrimidine derivatives, use thereof as medicaments, and pharmaceutical compositions” (USTAV EXPERIMENTALNI BOTANIKY AV CR, V.V.I., priority 2015, dated 2018)

Legend:
[1] = test system: HUVECs (human umbilical vein endothelial cells); test: HUVEC migration (scratch) assay; format: cell-based; conditions: 16 h, read-out: Inhibition of migration (EC50)
Experimental: (§1) To verify that novel compounds have anti-vascularisation properties, we analyzed their influence on the proliferation and migration of HUVECs. HUVECs (human umbilical vein endothelial cells) were purchased from Promocell (Heidelberg, Germany) and cultured in endothelial cell growth medium (ECGM, Promocell, Heidelberg, Germany) containing 10% FCS (Biochrom, Berlin, Germany). Experiments were performed using cells at passage 3.
For migration assay, confluent HUVECs were scratched with a pipette tip and immediately treated with either starvation medium M199 (serum-free, negative control; PAN Biotech) or full endothelial cell growth medium (positive control). After 16 h, cells were fixed with 3% formaldehyde and images were taken using the TILLvisON system (Lochham, Germany) connected to an Axiovert 200 microscope (Zeiss, Germany). Evaluation of pictures was made by S.CO LifeScience (Garching, Germany). Migration was quantified as the ratio of the area covered with cells and the area of the cell free wound.

[2] = test system: HUVECs (human umbilical vein endothelial cells); test: HUVEC proliferation assay (crystal violet); format: cell-based; conditions: Homo sapiens, HUVEC, 72 h, read-out: Inhibition of proliferation (EC50)
Experimental: as §1
For proliferation assay, 1.5×10^3 HUVECs were cultured for 24 h. Afterwards, cells were either left untreated or treated with novel compounds for 72 h. Proliferation assay was performed using crystal violet as described previously (Koltermann et al. 2007, Cell Mol. Life Sci. 64:1715-1722).

[3] = test system: HCT116 (colon carcinoma); test: MTT cytotoxicity assay, solid cancer cell line HCT116; format: cell-based; conditions: Homo sapiens, HCT-116, 72 h, three days
Experimental: (§2) The compounds were assayed using the following cell lines: G361 (malignant melanoma), MCF7 (breast adenocarcinoma), PLC/PRF/5 (liver hepatoma), PANC-1 (pancreatic carcinoma) and HCT116 (colon carcinoma). All cell lines were grown in DMEM medium supplemented with fetal bovine serum and L-glutamine and maintained at 37° C. in a humidified atmosphere with 5% CO2. For cytotoxicity assays, 4000-10000 cells were seeded into each well of a 96 well plate, allowed to stabilize for at least 16 h and then tested compounds were added at various concentrations ranging from 100 to 0.01 μM in triplicates. After three days, MTT solution (5 mg/ml; Sigma, St. Louis, USA) was added to cells and medium was replaced with DMSO after five hours. The absorbance was measured at 620 nm by employing a microplate reader. MTT assays were repeated 3 times for each drug application and untreated cells were used as reference.

[4] = test system: MV4;11 (acute myelocytic leukemia); test: MTT cytotoxicity assay, leukemic cell line MV4;11; format: cell-based; conditions: Homo sapiens, MV4-11, 72 h, three days
Text: (§3) Cytotoxicity of the compounds is the major property determining their antileukemic efficacy in vivo. One of the parameters used, as the basis for cytotoxicity assays, is the metabolic activity of viable cells. For example, a microtiter assay, which uses (3-(4,5-dimethylthiazol-2-yl)-2,5-diphenyltetrazolium bromide (MTT), is widely used to quantitate cell proliferation and cytotoxicity. This assay is widely used in drug screening programs and in chemosensitivity testing. Because only metabolically active living cells reduce MTT to correspond purple formazan dye, these assays detect viable cells exclusively. The quantity of reduced MTT corresponds to the number of vital cells in the culture.
as §2, with “following leukemic” for “following”, “K562 (human chronic myelogenous leukaemia), HL60 (human promyelocytic leukaemia), CEM (human lymphoblastoid leukaemia), THP1 (human monocytic cell line), MV4; 11 (acute myelocytic leukemia).” for “G361 (malignant melanoma), MCF7 (breast adenocarcinoma), PLC/PRF/5 (liver hepatoma), PANC-1 (pancreatic carcinoma) and HCT116 (colon carcinoma).”, “RPMI” for “DMEM”, “2000-5000” for “4000-10000”, “of” for “of a”, “8” for “16”

[5] = test system: K562 (human chronic myelogenous leukaemia); test: MTT cytotoxicity assay, leukemic cell line K562; format: cell-based; conditions: Homo sapiens, K562, 72 h, three days
Text: as §3
as §2, with “following leukemic” for “following”, “K562 (human chronic myelogenous leukaemia), HL60 (human promyelocytic leukaemia), CEM (human lymphoblastoid leukaemia), THP1 (human monocytic cell line), MV4; 11 (acute myelocytic leukemia).” for “G361 (malignant melanoma), MCF7 (breast adenocarcinoma), PLC/PRF/5 (liver hepatoma), PANC-1 (pancreatic carcinoma) and HCT116 (colon carcinoma).”, “RPMI” for “DMEM”, “2000-5000” for “4000-10000”, “of” for “of a”, “8” for “16”

[6] = test system: HL60 (human promyelocytic leukaemia); test: MTT cytotoxicity assay, leukemic cell line HL60; format: cell-based; conditions: Homo sapiens, HL-60, 72 h, three days
Text: as §3
as §2, with “following leukemic” for “following”, “K562 (human chronic myelogenous leukaemia), HL60 (human promyelocytic leukaemia), CEM (human lymphoblastoid leukaemia), THP1 (human monocytic cell line), MV4; 11 (acute myelocytic leukemia).” for “G361 (malignant melanoma), MCF7 (breast adenocarcinoma), PLC/PRF/5 (liver hepatoma), PANC-1 (pancreatic carcinoma) and HCT116 (colon carcinoma).”, “RPMI” for “DMEM”, “2000-5000” for “4000-10000”, “of” for “of a”, “8” for “16”

[7] = target: T1, CDK5/p35 (Homo sapiens, UniProt Q00535); test: CDK5/p35 kinase inhibition (33P-ATP, histone H1); format: biochemical; conditions: 0.15 μM ATP
T1 construct: purchased ProQinase GmbH
T1 sequence (Q00535 whole entry): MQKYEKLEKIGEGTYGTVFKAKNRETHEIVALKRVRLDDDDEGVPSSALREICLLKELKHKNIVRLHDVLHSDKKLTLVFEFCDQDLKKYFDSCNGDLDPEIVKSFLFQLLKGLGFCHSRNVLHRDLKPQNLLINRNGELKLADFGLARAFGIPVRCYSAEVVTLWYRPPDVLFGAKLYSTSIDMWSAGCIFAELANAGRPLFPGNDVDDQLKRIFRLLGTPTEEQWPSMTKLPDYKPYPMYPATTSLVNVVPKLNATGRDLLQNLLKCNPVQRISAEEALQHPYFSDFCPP
T1 sequence (Q15078 whole entry partner): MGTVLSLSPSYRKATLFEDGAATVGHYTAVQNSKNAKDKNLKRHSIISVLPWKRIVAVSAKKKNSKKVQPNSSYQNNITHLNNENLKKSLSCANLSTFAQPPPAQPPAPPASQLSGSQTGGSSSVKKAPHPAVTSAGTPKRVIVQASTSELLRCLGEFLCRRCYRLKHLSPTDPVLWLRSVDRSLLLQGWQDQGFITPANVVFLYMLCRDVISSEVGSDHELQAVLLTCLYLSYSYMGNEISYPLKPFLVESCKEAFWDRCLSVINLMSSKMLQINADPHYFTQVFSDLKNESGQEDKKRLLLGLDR
Experimental: CDK2/Cyclin E kinase was produced in Sf9 insect cells via baculoviral infection and purified on a NiNTA column (Qiagen). […] CDK5/p35 was purchased from ProQinase GmbH.
(§4) The reactions were stopped by adding 5 μL of 3% aq H3PO4. Aliquots were spotted onto P-81 phosphocellulose (Whatman), washed 3× with 0.5% aq H3PO4 and finally air-dried.

[8] = test system: MCF7 (breast adenocarcinoma); test: MTT cytotoxicity assay, solid cancer cell line MCF7; format: cell-based; conditions: Homo sapiens, MCF7, 72 h, three days
Experimental: as §2

[9] = test system: PLC/PRF/5 (liver hepatoma); test: MTT cytotoxicity assay, solid cancer cell line PLC/PRF/5; format: cell-based; conditions: Homo sapiens, PLC-PRF-5, 72 h, three days
Experimental: as §2

[10] = test system: PANC-1 (pancreatic carcinoma); test: MTT cytotoxicity assay, solid cancer cell line PANC-1; format: cell-based; conditions: Homo sapiens, PANC-1, 72 h, three days
Experimental: as §2

[11] = test system: G361 (malignant melanoma); test: MTT cytotoxicity assay, solid cancer cell line G361; format: cell-based; conditions: Homo sapiens, G-361, 72 h, three days
Experimental: as §2

[12] = test system: THP1 (human monocytic cell line); test: MTT cytotoxicity assay, leukemic cell line THP1; format: cell-based; conditions: Homo sapiens, THP-1, 72 h, three days
Text: as §3
as §2, with “following leukemic” for “following”, “K562 (human chronic myelogenous leukaemia), HL60 (human promyelocytic leukaemia), CEM (human lymphoblastoid leukaemia), THP1 (human monocytic cell line), MV4; 11 (acute myelocytic leukemia).” for “G361 (malignant melanoma), MCF7 (breast adenocarcinoma), PLC/PRF/5 (liver hepatoma), PANC-1 (pancreatic carcinoma) and HCT116 (colon carcinoma).”, “RPMI” for “DMEM”, “2000-5000” for “4000-10000”, “of” for “of a”, “8” for “16”

[13] = test system: CEM (human lymphoblastoid leukaemia); test: MTT cytotoxicity assay, leukemic cell line CEM; format: cell-based; conditions: Homo sapiens, 72 h, three days
Text: as §3
as §2, with “following leukemic” for “following”, “K562 (human chronic myelogenous leukaemia), HL60 (human promyelocytic leukaemia), CEM (human lymphoblastoid leukaemia), THP1 (human monocytic cell line), MV4; 11 (acute myelocytic leukemia).” for “G361 (malignant melanoma), MCF7 (breast adenocarcinoma), PLC/PRF/5 (liver hepatoma), PANC-1 (pancreatic carcinoma) and HCT116 (colon carcinoma).”, “RPMI” for “DMEM”, “2000-5000” for “4000-10000”, “of” for “of a”, “8” for “16”

[14] = test system: breast carcinoma cell line MCF7; test: Cell cycle profile by BrdU/propidium iodide flow cytometry; format: cell-based; conditions: asynchronously growing MCF7, 24 h, FIG. 1
Experimental: Sub-confluent cells were treated with test compounds at different concentrations for 24 h. The cultures were pulse-labeled with […] 5-bromo-20-deoxyuridine (BrdU) for 30 min at 37° C. prior to harvesting. The cells were then washed in PBS, fixed with 70% ethanol, and denatured in 2 M HCl. Following neutralization, the cells were stained with anti-BrdU fluorescein-labeled antibodies, washed, stained with propidium iodide and analyzed by flow cytometry using a 488 nm laser

[15] = target: T2, CDK2/Cyclin E (Homo sapiens, UniProt P24941); test: CDK2/Cyclin E kinase inhibition (33P-ATP, histone H1); format: biochemical; conditions: 15 μM ATP
T2 construct: made in house; host or cells: Sf9 insect cells (baculovirus)
Experimental: CDK2/Cyclin E kinase was produced in Sf9 insect cells via baculoviral infection and purified on a NiNTA column (Qiagen). The kinase reactions were assayed with 1 mg/mL histone H1 in the presence of 15 μM ATP, 0.05 μCi [γ-^33P]ATP and of the test compound in a final volume of 10 μL, all in a reaction buffer (60 mM HEPES-NaOH, pH 7.5, 3 mM MgCl2, 3 mM MnCl2, 3 μM Na-orthovanadate, 1.2 mM DTT, 2.5 μg/50 μl PEG20.000). CDK5/p35 was purchased from ProQinase GmbH. The kinase reactions were assayed with 1 mg/mL histone H1 in the presence of 0.15 μM ATP, 0.05 μCi [γ-^33P]ATP and of the test compound in a final volume of 10 μL, all in a reaction buffer (60 mM HEPES-NaOH, pH 7.5, 3 mM MgCl2, 3 mM MnCl2, 3 μM Na-orthovanadate, 1.2 mM DTT, 2.5 μg/50 μl PEG20.000).
as §4

[16] = test system: caspases 3 and 7 in K562 cells; test: Caspase-3/7 activity assay in K562 cells; format: cell-based, human; conditions: 24 hours, FIG. 2
Experimental: Measurement of proapoptotic properties of new compounds was based on quantification of enzymatic activities of caspases-3/7. Activity of cellular caspase-3/7 was measured according to Carrasco et al., 2003, BioTechniques, 34(5): 1064-67. Briefly, the cells were incubated in a 96-well plate overnight. Next day, the compounds in appropriate concentrations were added and cells were incubated for 24 hours. After incubation, 3× caspase-3/7 assay buffer (150 mM HEPES pH 7.4, 450 mM NaCl, 150 mM KCl, 30 mM MgCl2, 1.2 mM EGTA, 1.5% Nonidet P40, 0.3% CHAPS, 30% sucrose, 30 mM DTT, 3 mM PMSF) with 150 μM Ac-DEVD-AMC as a substrate (Sigma-Aldrich) was added to the wells and plates were incubated at 37° C. […]. The caspase activity was measured using Fluoroskan Ascent microplate reader (Labsystems) at 346 nm/442 nm (excitation/emission).

Structure (SMILES)	IC50 [7] [µM]	IC50 [15] [µM]	EC50 [1] [nM]	EC50 [2] [nM]	IC50 [3] [µM]	IC50 [4] [µM]	IC50 [5] [µM]	IC50 [6] [µM]	IC50 [8] [µM]	IC50 [9] [µM]	IC50 [10] [µM]	IC50 [11] [µM]	IC50 [12] [µM]	IC50 [13] [µM]	effect on the cell cycle of MCF7 [14]	caspase-3/7 activity in K562 cells [16]
CC(C)c1n[nH]c2c(NCc3ccc(-c4ccccn4)cc3)nc(S(C)(=O)=O)nc12 [Compound 7]	0.165	–	550	648	1.97	1.69	0.64	0.52	0.46	0.21	1.56	0.43	1.64	0.93	–	–
CC(C)c1[nH]nc2c(NCc3ccc(-c4ccccn4)cc3)nc(N3CCSCC3)nc12 [Compound 15]	0.114	–	–	153	0.69	0.87	0.59	0.6	0.53	0.2	0.34	0.42	0.31	0.23	potently arrested cells in S, G2 and M phases	–
CC(C)c1[nH]nc2c(NCc3ccc(-c4ccccn4)cc3)nc(NC[C@@H](C)O)nc12 [Compound 27]	–	0.021	35	33	0.1	0.06	0.06	0.02	0.03	0.04	0.07	0.08	0.03	0.01	–	–
CC(C)c1[nH]nc2c(NCc3ccc(-c4ccccn4)cc3)nc(NC3CCCCC3N)nc12 (centres unmarked) [Compound 65]	0.048	0.023	77	5	0.08	0.38	0.3	0.22	0.06	0.05	0.02	0.04	0.11	0.14	–	–
CC[C@@H](CO)Nc1nc(NCc2ccc(-c3ccccn3)cc2)c2n[nH]c(C(C)C)c2n1 [Compound 84]	–	0.098	–	–	–	–	–	–	–	–	–	–	–	–	potently arrested cells in S, G2 and M phases	–

Further lines, with some results ahead:

IC50 [7] [µM]	IC50 [15] [µM]	Structure (SMILES)	EC50 [1] [nM]	EC50 [2] [nM]	IC50 [3] [µM]	IC50 [4] [µM]	IC50 [5] [µM]	IC50 [6] [µM]	IC50 [8] [µM]	IC50 [9] [µM]	IC50 [10] [µM]	IC50 [11] [µM]	IC50 [12] [µM]	IC50 [13] [µM]	effect on the cell cycle of MCF7 [14]	caspase-3/7 activity in K562 cells [16]
0.119	–	CC(C)c1[nH]nc2c(NCc3ccc(-c4ccccn4)cc3)nc(N3CCNCC3)nc12 [Compound 13]	26	9	0.03	0.04	0.02	0.02	0.02	0.05	0.06	0.02	0.03	0.01	–	–
0.001	–	CC(C)c1[nH]nc2c(NCc3ccc(-c4ccccn4)cc3)nc(NCC(C)(C)O)nc12 [Compound 33]	22	14	0.04	0.07	0.03	0.02	0.02	0.05	0.01	0.03	0.01	0.01	–	potent dose-dependent activation of the caspases in nanomolar concentrations
2.14	–	CC(C)c1[nH]nc2c(NCc3ccc(-c4ccccn4)cc3)nc(NCCN(C)C)nc12 [Compound 47]	–	181	0.34	0.12	0.13	0.09	0.23	0.24	0.2	0.47	0.06	0.07	potently arrested cells in S, G2 and M phases	–
–	0.054	CC[C@H](CO)Nc1nc(NCc2ccc(-c3ccccn3)cc2)c2n[nH]c(C(C)C)c2n1 [Compound 83]	39	34	0.03	0.07	–	0.02	0.05	0.02	0.02	0.04	0.01	0.06	–	–
